The record followed here is ChEMBL document CHEMBL1152067, “Design and syntheses of 4-acylaminopyridine derivatives: Novel high affinity choline uptake enhancers I” (Bioorg Med Chem Lett, 1995).

Common to all, as to conditions: Hippocampus
For experiment [1], the target named is High-affinity choline transporter 1 (Rattus norvegicus) (UniProt Q9JMD7). As to the kind of experiment: Effect on uptake amount of [3H]choline in the hippocampal synaptosomes of AF64A-treated rats at a concentration of 10e-5 M.
Experiment [2] shares this target. As to the kind of experiment: Effect on uptake amount of [3H]choline in the hippocampal synaptosomes of AF64A-treated rats at a concentration of 10e-6 M.
Experiment [3] shares this target. As to the kind of experiment: Effect on uptake amount of [3H]choline in the hippocampal synaptosomes of AF64A-treated rats at a concentration of 10e-7 M.

The structures appear in SMILES notation.

High-affinity choline transporter 1 (Rattus norvegicus), sequence (Q9JMD7 whole entry, looked up): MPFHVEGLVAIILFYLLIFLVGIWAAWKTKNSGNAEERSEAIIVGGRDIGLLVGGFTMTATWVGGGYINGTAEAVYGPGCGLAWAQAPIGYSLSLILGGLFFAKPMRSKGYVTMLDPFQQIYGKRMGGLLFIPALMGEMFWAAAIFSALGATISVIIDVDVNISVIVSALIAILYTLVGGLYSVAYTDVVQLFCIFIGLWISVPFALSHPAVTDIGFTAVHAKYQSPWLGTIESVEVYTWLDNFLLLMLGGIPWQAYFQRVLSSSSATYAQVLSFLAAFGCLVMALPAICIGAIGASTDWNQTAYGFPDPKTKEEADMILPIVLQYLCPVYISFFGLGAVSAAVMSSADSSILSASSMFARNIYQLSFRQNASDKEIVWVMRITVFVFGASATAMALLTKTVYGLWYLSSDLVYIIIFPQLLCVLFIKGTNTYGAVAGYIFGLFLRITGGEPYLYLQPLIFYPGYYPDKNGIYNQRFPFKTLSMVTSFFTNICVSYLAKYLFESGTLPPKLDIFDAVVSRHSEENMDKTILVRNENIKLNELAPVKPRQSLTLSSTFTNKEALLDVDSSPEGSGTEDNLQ

Consider `CNCC(=O)Nc1c2c(nc3ccccc13)CCCC2`, for which the HACU improvement in experiment [1] was 21%; in experiment [2], 18%; in experiment [3], 8%.
The matching figures for `O=C(CN1C(=O)CNC1=O)Nc1c2c(nc3ccccc13)CCCC2`: 16%, 0% and -5%.
The matching figures for `CCCCC(=O)Nc1c2c(nc3ccccc13)CCCC2`: 18%, -1% and -2%.
The matching figures for `CN(C)CC(=O)Nc1c2c(nc3ccccc13)CCCC2`: -7%, -13% and 0%.
In the case of `O=C(CN1CCCCC1=O)Nc1c2c(nc3ccccc13)CCCC2`, the HACU improvement in experiment [1] was 5%; in experiment [2] it was 2%; in experiment [3], -3%.
On to `CC(NCC(=O)Nc1c2c(nc3ccccc13)CCCC2)C(=O)O` (stereo not given), for which the HACU improvement in experiment [1] was 13%; in experiment [2] it was 6%; in experiment [3] it was -7%.
The matching figures for `O=C1CN(CC(=O)Nc2c3c(nc4ccccc24)CCCC3)C(=O)N1`: 10%, 11% and 15%.
The matching figures for `O=C(CN1CCNC1=O)Nc1c2c(nc3ccccc13)CCCC2`: 25%, 1% and 6%.
Turning to `O=C(O)CNCC(=O)Nc1c2c(nc3ccccc13)CCCC2`, the HACU improvement in experiment [1] is 27%; in experiment [2] it was -2%; in experiment [3] it was -4%.
In the case of `O=C(CN1CCCC1=O)Nc1c2c(nc3ccccc13)CCCC2`, the figures for the HACU improvement in experiment [1], in experiment [2] and in experiment [3] were 13%, 14% and 17%, respectively.
The matching figures for `CCC(=O)Nc1c2c(nc3ccccc13)CCCC2`: 3%, 1% and 3%.
As to `CC(C)CC(=O)Nc1c2c(nc3ccccc13)CCCC2`, the HACU improvement in experiment [1] was 0%; in experiment [2] it was -22%; in experiment [3] it was 4%.
As for `Nc1c2c(nc3ccccc13)CCCC2`, the values for the HACU improvement in experiment [1], in experiment [2] and in experiment [3] were -13%, 8% and 8%, respectively.
With `CC(=O)Nc1c2c(nc3ccccc13)CCCC2`, the HACU improvement in experiment [1] was -11%; in experiment [2], -10%; in experiment [3], -12%.
The matching figures for `CCCC(=O)Nc1c2c(nc3ccccc13)CCCC2`: 28%, 24% and 13%.
In the case of `O=C(CN1CCCC1)Nc1c2c(nc3ccccc13)CCCC2`, the values for the HACU improvement in experiment [1], in experiment [2] and in experiment [3] were -71%, -20% and 1%, respectively.
The matching figures for `CC1C(=O)NC(=O)N1CC(=O)Nc1c2c(nc3ccccc13)CCCC2` (stereo not given): 11%, 2% and 4%.
In the case of `O=C(Cn1ccnc1)Nc1c2c(nc3ccccc13)CCCC2`, the HACU improvement in experiment [1] was found to be 48%; in experiment [2], 14%; in experiment [3], 6%.
The matching figures for `CCCCCC(=O)Nc1c2c(nc3ccccc13)CCCC2`: 2%, 5% and 11%.
The matching figures for `CC(C)C(=O)Nc1c2c(nc3ccccc13)CCCC2`: 15%, 9% and 12%.
